Each structure is given as a SMILES string.

This is an account of results in patent US20240391882A1 (Mirati Therapeutics, Inc., priority 2023, published 2024).

Type in all cases: cell-based
Experiment [1] relates to T47D (PI3Kα H1047R mutant) cells. The experiment is described as follows: Cell viability (CellTiter-Glo 2.0) in T47D cells. The settings on record: Homo sapiens, T47D, 72 h, approximately 72 hours. Summed up: (§1)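 IC50 values derive from four-parameter fits of CellTiter-Glo luminescence expressed as percent of vehicle control. Cells (T47D or SKBR3) were plated at 1000/well the day before dosing and incubated about 72 h at 37° C with a 10-point, 1:4 series starting at 10 μm.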

The subject of experiment [2] is SKBR3 (PI3Kα wild type) cells. The experiment is described as follows: Cell viability (CellTiter-Glo 2.0) in SKBR3 cells. The note with it: Homo sapiens, SK-BR-3; SKBR3 (PI3Kα wild type) cells, approximately 72 hours, CellTiter-Glo 2.0; read-out: SKBR3 (WT) Viability IC50. Summed up:
as §1

In experiment [3] the test system is pAKT in T47D (PI3Kα H1047R mutant) cells. The experiment in a line: Inhibition of pAKT (alphaLISA Surefire Ultra AKT 1/2/3 pS473) in T47D cells. The note with it: Homo sapiens; T47D (PI3Kα H1047R mutant) cells, 24 hr compound incubation, alphaLISA pS473; read-out: T47D (H1047R) pAKT 24 hr (IC50). Summed up:
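AlphaLISA read-out of AKT pS473 in lysates after roughly 24 h compound exposure at 37° C in HBSS. Ten concentrations, 1:4 dilutions from a 10.4 μm top dose. Percent of control uses alpelisib at 3.125 μm as background and DMSO as vehicle; four-parameter curve gives IC50.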

As for `Cc1cc([C@@H](C)Nc2ccccc2C(=O)O)c2nc(N3CCC(F)(F)CC3)c(C#N)nc2c1` [Example 3, (R)-2-((1-(2-cyano-3-(4,4-difluoropiperidin-1-yl)-7-methylquinoxalin-5-yl)ethyl)amino)benzoate], the IC50 was 170 nM in experiment [1], > 10000 nM in experiment [2] and 9.5 nM in experiment [3].

Consider `Cc1cc([C@@H](C)Nc2ccc(Cl)nc2C(=O)O)c2nc(N3CCc4ccc(C#N)cc4C3)c(C#N)nc2c1` [Example 217, (R)-6-chloro-3-((1-(2-cyano-3-(7-cyano-3,4-dihydroisoquinolin-2(1H)-yl)-7-methylquinoxalin-5-yl)ethyl)amino)picolinic acid], for which the IC50 is 64 nM in experiment [1], > 10000 nM in experiment [2] and 0.69 nM in experiment [3].

On to `Cc1cc([C@@H](C)Nc2ccc(Cl)nc2C(=O)O)c2nc(N3CCO[C@H](CO)C3)c(C#N)nc2c1` [Example 235A, 6-chloro-3-(((R)-1-(2-cyano-3-((S)-2-(hydroxymethyl)morpholino)-7-methylquinoxalin-5-yl)ethyl)amino)picolinic acid], for which the IC50 in experiment [1] is 183 nM; in experiment [2], > 10000 nM; in experiment [3], 2 nM.

Consider `Cc1cc([C@@H](C)Nc2ccc(Cl)nc2C(=O)O)c2nc(N3CCC4(CC3)COC4)c(C#N)nc2c1` [Example 249, (R)-6-chloro-3-((1-(2-cyano-7-methyl-3-(2-oxa-7-azaspiro[3.5]nonan-7-yl)quinoxalin-5-yl)ethyl)amino)picolinic acid], for which the IC50 in experiment [1] stood at 16 nM; in experiment [2] it was 6650 nM; in experiment [3] it was 1.7 nM.

For `Cc1cc([C@@H](C)Nc2ccccc2C(=O)O)c2nc(NC[C@@]3(C)CC3(F)F)c(C#N)nc2c1` (single isomer, unassigned) [Example 75B], the figures for the IC50 in experiment [1], in experiment [2] and in experiment [3] were 720 nM, > 10000 nM and 39 nM, respectively.

As to `Cc1cc([C@@H](C)Nc2ccc(Cl)nc2C(=O)O)c2nc(N3CC4(CCOC4)C3)c(C#N)nc2c1` [Example 251, (R)-6-chloro-3-((1-(2-cyano-7-methyl-3-(6-oxa-2-azaspiro[3.4]octan-2-yl)quinoxalin-5-yl)ethyl)amino)picolinic acid], the values for the IC50 in experiment [1], in experiment [2] and in experiment [3] were 11 nM, > 10000 nM and 1.1 nM, respectively.

In the case of `C[C@H](Nc1ccccc1C(=O)O)c1cc(F)cc2nc(C#N)c(N3CCC(F)(F)CC3)nc12` [Example 31, (S)-2-((1-(2-cyano-3-(4,4-difluoropiperidin-1-yl)-7-fluoroquinoxalin-5-yl)ethyl)amino)benzoic acid], the IC50 in experiment [1] was > 10000 nM; in experiment [2], > 10000 nM; in experiment [3], 561 nM.

With `Cc1cc([C@@H](C)Nc2ccc(Cl)nc2C(=O)O)c2nc(C3CC3)c(C#N)nc2c1` [Example 44, (R)-6-chloro-3-((1-(2-cyano-3-cyclopropyl-7-methylquinoxalin-5-yl)ethyl)amino)picolinic acid], the IC50 was 157 nM in experiment [1], > 10000 nM in experiment [2] and 2 nM in experiment [3].

Turning to `Cc1cc([C@@H](C)Nc2ccc(Cl)nc2C(=O)O)c2nc(N3C[C@@H]4COC[C@H]4C3)c(C#N)nc2c1` (single isomer, unassigned) [Example 229B], the IC50 in experiment [1] was found to be 18.6 nM; in experiment [2], 4920 nM; in experiment [3], 1.2 nM.

With `Cc1cc([C@@H](C)Nc2ccc(Cl)nc2C(=O)O)c2nc(N3CC4CC[C@@]4(F)C3)c(C#N)nc2c1` (single isomer, unassigned) [Example 244A], the figures for the IC50 in experiment [1], in experiment [2] and in experiment [3] were 57 nM, > 10000 nM and 1.2 nM, respectively.

`Cc1cc([C@@H](C)Nc2ccc(Cl)nc2C(=O)O)c2nc(C3CCOCC3)c(C#N)nc2c1` [Example 233, (R)-6-chloro-3-((1-(2-cyano-7-methyl-3-(tetrahydro-2H-pyran-4-yl)quinoxalin-5-yl)ethyl)amino)picolinic acid]: the figures for the IC50 in experiment [1], in experiment [2] and in experiment [3] were 84.4 nM, > 10000 nM and 0.17 nM, respectively.
